Measurements reported in PubChem BioAssay AID328 (DTP/NCI, 2004).
Values joined by “and” are separate entries in the source; they are usually repeats but may differ in a detail not shown here. Equal entries are not always repeated. Inconclusive results and toxic doses are left out.

Tested on: BDF1 mice, P388 leukemia ip, median survival T/C
Test: NCI In Vivo Anticancer Drug Screen. Data for tumor model P388 Leukemia (intraperitoneal) in B6D2F1 (BDF1) mice
Conditions: endpoint: median survival time, higher = longer survival
Summary of the method: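 Mice carrying the transplantable tumour receive compound or vehicle. Survival is followed in each arm, and the treated measure is divided by the vehicle measure.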

[1] = dose: 100.0 mg/kg/injection, schedule: Q04DX003 (ip), vehicle: saline with Tween-80
[2] = dose: 200.0 mg/kg/injection, schedule: Q04DX003 (ip), vehicle: saline with Tween-80
[3] = dose: 100.0 mg/kg/injection, schedule: Q01DX001 (ip), vehicle: saline with Tween-80
[4] = dose: 200.0 mg/kg/injection, schedule: Q01DX001 (ip), vehicle: saline with Tween-80
[5] = dose: 400.0 mg/kg/injection, schedule: Q01DX001 (ip), vehicle: saline with Tween-80
[6] = dose: 100.0 mg/kg/injection, schedule: Q01DX009 (ip), vehicle: other

COc1ccc2nc3cc(Cl)ccc3c(Cl)c2c1
T/C (dose: 100.0 mg/kg/injection, schedule: Q01DX009 (ip), vehicle: saline with Tween-80): 95 % of control | T/C [1]: 109 % of control | T/C (dose: 200.0 mg/kg/injection, schedule: Q01DX009 (ip), vehicle: saline with Tween-80): 95 % of control | T/C [2]: 100 % of control | T/C (dose: 400.0 mg/kg/injection, schedule: Q01DX009 (ip), vehicle: saline with Tween-80): 95 % of control | T/C (dose: 400.0 mg/kg/injection, schedule: Q04DX003 (ip), vehicle: saline with Tween-80): 109 % of control

COc1cc(/C=N\N=C\c2ccc(O)c(OC)c2)ccc1O
T/C [3]: 100 % of control | T/C [4]: 104 % of control | T/C [5]: 100 % of control

COc1ccc2c(c1)N=C1CCCC3CCCCC123 (stereo not drawn)
T/C [1]: 99 % of control | T/C [2]: 114 % of control

CCCCC/C=C/c1c(C)[nH]c2ccccc2c1=O
T/C (dose: 100.0 mg/kg/injection, schedule: Q04DX003 (ip), vehicle: Klucel (hydroxypropylcellulose) (HPC)): 95 % of control | T/C (dose: 200.0 mg/kg/injection, schedule: Q04DX003 (ip), vehicle: Klucel (hydroxypropylcellulose) (HPC)): 95 % of control | T/C (dose: 400.0 mg/kg/injection, schedule: Q04DX003 (ip), vehicle: Klucel (hydroxypropylcellulose) (HPC)): 113 % of control

O=C(Nc1ccccc1C(=O)O)c1cc([N+](=O)[O-])cc([N+](=O)[O-])c1
T/C (dose: 50.0 mg/kg/injection, schedule: Q01DX009 (ip), vehicle: saline with Tween-80): 117 % of control

Cc1ccc(S(=O)(=O)N/N=C2/C(=N/NS(=O)(=O)c3ccc(C)cc3)C3CCC2C3)cc1
T/C (dose: 50.0 mg/kg/injection, schedule: Q01DX009 (ip), vehicle: other): 105 % of control | T/C [6]: 96 % of control | T/C (dose: 200.0 mg/kg/injection, schedule: Q01DX009 (ip), vehicle: other): 95 % of control

OCC1CC[N-]CC1.OCC1CC[N-]CC1.[Cl][Pt+2]([Cl])([Cl])[Cl]
T/C (dose: 25.0 mg/kg/injection, schedule: Q04DX003 (ip), vehicle: saline): 104 % of control | T/C (dose: 50.0 mg/kg/injection, schedule: Q04DX003 (ip), vehicle: saline): 101 % of control | T/C (dose: 100.0 mg/kg/injection, schedule: Q04DX003 (ip), vehicle: saline): 118 % of control

COc1cc(Nc2nc(N)ncc2N)cc(OC)c1OC
T/C [3]: 91 % of control | T/C [4]: 91 % of control | T/C [5]: 100 % of control

ClCCN(CCCl)CCN1c2ccccc2Sc2ccccc21
T/C (dose: 0.79 mg/kg/injection, schedule: Q01DX009 (ip), vehicle: Klucel (hydroxypropylcellulose) (HPC)): 90 % of control | T/C (dose: 1.1 mg/kg/injection, schedule: Q01DX009 (ip), vehicle: Klucel (hydroxypropylcellulose) (HPC)): 90 % of control | T/C (dose: 2.5 mg/kg/injection, schedule: Q01DX009 (ip), vehicle: saline with Tween-80): 150 % of control | T/C (dose: 4.0 mg/kg/injection, schedule: Q01DX009 (ip), vehicle: Klucel (hydroxypropylcellulose) (HPC)): 170 % of control | T/C (dose: 5.0 mg/kg/injection, schedule: Q01DX009 (ip), vehicle: saline with Tween-80): 186 % of control | T/C (dose: 9.37 mg/kg/injection, schedule: Q01DX009 (ip), vehicle: Klucel (hydroxypropylcellulose) (HPC)): 150 % of control | T/C (dose: 10.0 mg/kg/injection, schedule: Q01DX009 (ip), vehicle: saline with Tween-80): 186 % of control | T/C (dose: 12.5 mg/kg/injection, schedule: Q04DX003 (ip), vehicle: Klucel (hydroxypropylcellulose) (HPC)): 160 % of control | T/C (dose: 17.0 mg/kg/injection, schedule: Q04DX003 (ip), vehicle: Klucel (hydroxypropylcellulose) (HPC)): 166 % of control | T/C (dose: 17.5 mg/kg/injection, schedule: Q04DX003 (ip), vehicle: Klucel (hydroxypropylcellulose) (HPC)): 185 % of control | T/C (dose: 20.0 mg/kg/injection, schedule: Q01DX009 (ip), vehicle: saline with Tween-80): 95 % of control | T/C (dose: 23.0 mg/kg/injection, schedule: Q04DX003 (ip), vehicle: Klucel (hydroxypropylcellulose) (HPC)): 109 % of control | T/C (dose: 25.0 mg/kg/injection, schedule: Q04DX003 (ip), vehicle: Klucel (hydroxypropylcellulose) (HPC)): 175 % of control and 200 % of control | T/C (dose: 35.0 mg/kg/injection, schedule: Q04DX003 (ip), vehicle: Klucel (hydroxypropylcellulose) (HPC)): 109 % of control and 210 % of control | T/C (dose: 37.0 mg/kg/injection, schedule: Q04DX003 (ip), vehicle: Klucel (hydroxypropylcellulose) (HPC)): 185 % of control | T/C (dose: 37.5 mg/kg/injection, schedule: Q01DX009 (ip), vehicle: Klucel (hydroxypropylcellulose) (HPC)): 170 % of control | T/C (dose: 50.0 mg/kg/injection, schedule: Q04DX003 (ip), vehicle: Klucel (hydroxypropylcellulose) (HPC)): 109 % of control | T/C (dose: 50.0 mg/kg/injection, schedule: Q04DX003 (ip), vehicle: saline with Tween-80): 104 % of control

Cc1cccc(C(=O)NN)c1O
T/C (dose: 25.0 mg/kg/injection, schedule: Q01DX009 (ip), vehicle: saline + alcohol): 92 % of control | T/C (dose: 100.0 mg/kg/injection, schedule: Q01DX009 (ip), vehicle: saline + alcohol): 97 % of control

Nc1nc2nc(N=Nc3ccc(Br)cc3)[nH]c2c(=O)[nH]1
T/C (dose: 50.0 mg/kg/injection, schedule: Q01DX005 (ip), vehicle: saline with Tween-80): 98 % of control | T/C (dose: 100.0 mg/kg/injection, schedule: Q01DX005 (ip), vehicle: saline with Tween-80): 97 % of control | T/C (dose: 200.0 mg/kg/injection, schedule: Q01DX005 (ip), vehicle: saline with Tween-80): 100 % of control

CC1(C)C2CCC(CN)C1C2 (stereo not drawn)
T/C [6]: 106 % of control
